The structures appear in SMILES notation.

The target of this assay is T1, human M1 receptor (Homo sapiens, UniProt P11229).
T1 sequence (P11229 1-460): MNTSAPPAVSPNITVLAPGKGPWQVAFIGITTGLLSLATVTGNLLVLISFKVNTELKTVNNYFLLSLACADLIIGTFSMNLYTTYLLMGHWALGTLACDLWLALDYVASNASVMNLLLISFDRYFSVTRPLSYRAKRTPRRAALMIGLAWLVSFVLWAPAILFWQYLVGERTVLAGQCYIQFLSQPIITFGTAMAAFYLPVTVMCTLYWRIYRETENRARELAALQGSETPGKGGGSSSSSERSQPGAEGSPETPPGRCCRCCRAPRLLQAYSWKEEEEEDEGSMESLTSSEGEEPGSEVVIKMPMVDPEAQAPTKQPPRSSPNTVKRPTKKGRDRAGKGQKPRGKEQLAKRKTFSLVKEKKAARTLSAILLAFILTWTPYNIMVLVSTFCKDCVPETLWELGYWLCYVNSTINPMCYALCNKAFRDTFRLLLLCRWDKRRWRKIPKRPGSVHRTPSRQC
Put plainly: In vitro functional assay of muscarinic acetylcholine receptor activity (aequorin calcium flux, reversal of EC80 acetylcholine response). The class given is cell-based. The following applies: CHO-K1 cells stably expressing human M1 receptor with aequorin; acetylcholine at EC80; calcium flux (luminescence); read-out: M1 IC50. Here is the method: CHO-K1 cells stably expressing human M1 receptor with aequorin (Perkin Elmer) were grown in F12 media (Gibco) containing 10% FBS (ATCC), 0.4 mg/mL geneticin (Sigma-Aldrich) and 0.25 mg/mL Zeocin (Invitrogen). Cells were grown as per the manufacturer's protocol. For compound testing, cells were grown to confluency and detached gently with Accutase (Sigma-Aldrich) followed by centrifugation for 5 min at 150× g. Cells were then re-suspended in assay buffer (i.e. DMEM/F-12 HEPES without phenol red (Invitrogen) with 0.1% BSA (Sigma-Aldrich)) at a density of 5×10^6 cells/ml. Under sterile conditions, 5 μM coelenterazine (Invitrogen) was added to the cells, mixed, then incubated at room temperature protected from light, with gentle agitation, for 4 h.
Primary compound plates were prepared in 100% DMSO in opaque 96-well plates (VWR) and serially diluted in half log increments. Secondary compound plates were prepared at 3× concentration in assay buffer. Compounds were added to white, clear bottom tissue culture treated 96-well plates (Fisher Scientific). Coelenterazine-loaded cells were then added at 5×10^5 cells/well.
Compounds and cells were incubated at room temperature for 30 min in the dark. Acetylcholine at the EC80 concentration was added and calcium flux measured using a FlexStation 3 (Molecular Devices). Sigmoidal dose-response curves were generated by measuring luminescence over 40 sec and calculating the area under the curve. Dose response curves and IC50 values were generated using Prism (GraphPad). Compounds were tested at a final concentration range of 100 μM to […] in 0.1% DMSO.
On the technique in general: Calcium flux is commonly read through the fluorescence of an indicator in the cells.

What is called IC50 is the concentration needed to halve the response being measured. Take `CC(SCCC(=O)N1CC2CCC(C1)N2c1ccc(C#N)cn1)c1ccccc1Br` (racemic) [Example 136, 6-((3-((1-(2-bromophenyl)ethyl)thio)propanoyl)-3,8-diazabicyclo[3.2.1]octan-8-yl)nicotinonitrile]: the IC50 lay within 100 to 1000 nM. As for `CC(c1ccc(F)c(F)c1)N1CC(C(=O)N2CC3CCC(C2)N3c2ccc(C#N)cn2)C1` (racemic) [Example 137, 6-(3-(1-(1-(3,4-difluorophenyl)ethyl)azetidine-3-carbonyl)-3,8-diazabicyclo[3.2.1]octan-8-yl)nicotinonitrile], the IC50 lay in the range of 100 to 1000 nM. With `COc1cc(C(F)(F)C2CC2C(=O)N2CC3CCC(C2)N3c2ccc(C#N)cn2)ccn1` (racemic) [Example 166, 6-(3-(2-(difluoro(2-methoxypyridin-4-yl)methyl)cyclopropane-1-carbonyl)-3,8-diazabicyclo[3.2.1]octan-8-yl)nicotinonitrile] the figure was 1000 to 10000 nM; with `CC(c1ccc(F)cc1)[S+]([O-])CC(=O)N1CC2CCC(C1)N2c1ccc(C#N)cn1` (racemic) [Example 167, 6-(3-(2-((1-(4-fluorophenyl)ethyl)sulfinyl)acetyl)-3,8-diazabicyclo[3.2.1]octan-8-yl)nicotinonitrile], 100 to 1000 nM.

For `CC(c1ccccc1)[S+]([O-])CC(=O)N1CC2CCC(C1)N2c1ccc(C#N)cn1` (racemic) [Example 168, 6-(3-(2-((1-phenylethyl)sulfinyl)acetyl)-3,8-diazabicyclo[3.2.1]octan-8-yl)nicotinonitrile], the half-maximal inhibitory concentration (IC50) is 1000 to 10000 nM. For the molecule `CC(c1ccccc1)[S+]([O-])CCC(=O)N1CC2CCC(C1)N2c1ccc(C#N)cn1` (racemic) [Example 169, 6-(3-(3-((1-phenylethyl)sulfinyl)propanoyl)-3,8-diazabicyclo[3.2.1]octan-8-yl)nicotinonitrile], the half-inhibitory concentration (IC50) was 1000 to 10000 nM. With `CC(c1ccc(F)cc1)[S+]([O-])CCC(=O)N1CC2CCC(C1)N2c1ccc(C#N)cn1` (racemic) [Example 170, 6-(3-(3-((1-(4-fluorophenyl)ethyl)sulfinyl)propanoyl)-3,8-diazabicyclo[3.2.1]octan-8-yl) nicotinonitrile] the figure was greater than 1000 nM.

As for `CC(c1ccccc1Br)[S+]([O-])CCC(=O)N1CC2CCC(C1)N2c1ccc(C#N)cn1` (racemic) [Example 171, 6-(3-(3-((1-(2-bromophenyl)ethyl)sulflnyl)propanoyl)-3,8-diazabicyclo[3.2.1]octan-8-yl) nicotinonitrile], the IC50 was greater than 1000 nM.

As for `CC(c1ccccc1)S(=O)(=O)CC(=O)N1CC2CCC(C1)N2c1ccc(C#N)cn1` (racemic) [Example 172, 6-(3-(2-((1-phenylethyl)sulfonyl)acetyl)-3,8-diazabicyclo[3.2.1]octan-8-yl)nicotinonitrile], the IC50 was greater than 1000 nM.

With `CC(c1ccc(F)cc1)S(=O)(=O)CC(=O)N1CC2CCC(C1)N2c1ccc(C#N)cn1` (racemic) [Example 173, 6-(3-(2-((1-(4-fluorophenyl)ethyl)sulfonyl)acetyl)-3,8-diazabicyclo[3.2.1]octan-8-yl)nicotinonitrile], the concentration for half-maximal inhibition (IC50) is 1000 to 10000 nM. With `CC(c1ccccc1)S(=O)(=O)CCC(=O)N1CC2CCC(C1)N2c1ccc(C#N)cn1` (racemic) [Example 174, 6-(3-(3-((1-phenylethyl)sulfonyl)propanoyl)-3,8-diazabicyclo[3.2.1]octan-8-yl)nicotinonitrile] the figure was greater than 1000 nM; with `CC(c1ccc(F)cc1)S(=O)(=O)CCC(=O)N1CC2CCC(C1)N2c1ccc(C#N)cn1` (racemic) [Example 175, 6-(3-(3-((1-(4-fluorophenyl)ethyl)sulfonyl)propanoyl)-3,8-diazabicyclo[3.2.1]octan-8-yl) nicotinonitrile], greater than 1000 nM. For `CC(c1ccccc1Br)S(=O)(=O)CCC(=O)N1CC2CCC(C1)N2c1ccc(C#N)cn1` (racemic) [Example 176, 6-(3-(3-((1-(2-bromophenyl)ethyl)sulfonyl)propanoyl)-3,8-diazabicyclo[3.2.1]octan-8-yl) nicotinonitrile], the IC50 lay in the range of 1000 to 10000 nM. Consider `N#Cc1ccc(N2C3CCC2CN(C(=O)COC2CCc4ccc(F)cc42)C3)nc1` (racemic) [Example 183, 6-(3-(2-((6-fluoro-2,3-dihydro-1H-inden-1-yl)oxy)acetyl)-3,8-diazabicyclo[3.2.1]octan-8-yl)nicotinonitrile], for which the IC50 was 10 to 100 nM.

As for `N#Cc1ccc(N2C3CCC2CN(C(=O)COC2CCc4cc(F)ccc42)C3)nc1` (racemic) [Example 184, 6-(3-(2-((5-fluoro-2,3-dihydro-1H-inden-1-yl)oxy)acetyl)-3,8-diazabicyclo[3.2.1]octan-8-yl)nicotinonitrile], the 50% inhibitory concentration (IC50) was in the range of 10 to 100 nM. Take `CC(OCC(=O)N1CC2CCC(C1)N2c1ccc(C#N)cn1)c1ccc(C(F)(F)F)nc1` (racemic) [Example 190, 6-(3-(2-(1-(6-(trifluoromethyl)pyridin-3-yl)ethoxy)acetyl)-3,8-diazabicyclo[3.2.1]octan-8-yl)nicotinonitrile]: the 50% inhibitory concentration (IC50) was greater than 1000 nM. Take `CC(OCC(=O)N1CC2CCC(C1)N2c1ccc(C#N)cn1)c1cccc2ncnn12` (racemic) [Example 191, 6-(3-(2-(1-([1,2,4]triazolo[1,5-a]pyridin-5-yl)ethoxy)acetyl)-3,8-diazabicyclo[3.2.1]octan-8-yl)nicotinonitrile]: the half-maximal inhibitory concentration (IC50) fell in the range of 10 to 100 nM.

For `CC(OCC(=O)N1CC2CCC(C1)N2c1ccc(C#N)cn1)c1cccc2ncccc12` (racemic) [Example 192, 6-(3-(2-(1-(quinolin-5-yl)ethoxy)acetyl)-3,8-diazabicyclo[3.2.1]octan-8-yl)nicotinonitrile], the concentration for half-maximal inhibition (IC50) was less than 10 nM. Take `CC(OCC(=O)N1CC2CCC(C1)N2c1ccc(C#N)cn1)c1cccc2nccnc12` (racemic) [Example 193, 6-(3-(2-(1-(quinoxalin-5-yl)ethoxy)acetyl)-3,8-diazabicyclo[3.2.1]octan-8-yl)nicotinonitrile]: the 50% inhibitory concentration (IC50) was less than 10 nM. With `N#Cc1ccc(N2C3CCC2CN(C(=O)COC(c2ccc(F)c(F)c2)C2CC2)C3)nc1` (racemic) [Example 194, 6-(3-(2-(cyclopropyl(3,4-difluorophenyl)methoxy)acetyl)-3,8-diazabicyclo[3.2.1]octan-8-yl)nicotinonitrile] the figure was 100 to 1000 nM; with `N#Cc1ccc(N2C3CCC2CN(C(=O)COC(c2cccc4ncnn24)C2CC2)C3)nc1` (racemic) [Example 195, 6-(3-(2-([1,2,4]triazolo[1,5-a]pyridin-5-yl(cyclopropyl)methoxy)acetyl)-3,8-diazabicyclo[3.2.1]octan-8-yl)nicotinonitrile], 10 to 100 nM. In the case of `CC(OCC(=O)N1CC2CCC(C1)N2c1ccc(C#N)cn1)c1cccn2ncnc12` (racemic) [Example 196, 6-(3-(2-(1-([1,2,4]triazolo[1,5-a]pyridin-8-yl)ethoxy)acetyl)-3,8-diazabicyclo[3.2.1]octan-8-yl)nicotinonitrile], the half-maximal inhibitory concentration (IC50) was less than 10 nM. Then `Cc1noc(C)c1C(C)OCC(=O)N1CC2CCC(C1)N2c1ccc(C#N)cn1` (racemic) [Example 197, 6-(3-(2-(1-(3,5-dimethylisoxazol-4-yl)ethoxy)acetyl)-3,8-diazabicyclo[3.2.1]octan-8-yl)nicotinonitrile], with less than 10 nM; and `Cc1nn(C)c(C)c1C(C)OCC(=O)N1CC2CCC(C1)N2c1ccc(C#N)cn1` (racemic) [Example 198, 6-(3-(2-(1-(1,3,5-trimethyl-1H-pyrazol-4-yl)ethoxy)acetyl)-3,8-diazabicyclo[3.2.1]octan-8-yl)nicotinonitrile], with 10 to 100 nM. Then `N#Cc1ccc(N2C3CCC2CN(C(=O)COC(c2cccc4ncccc24)C(F)F)C3)nc1` (racemic) [Example 199, 6-(3-(2-(2,2-difluoro-1-(quinolin-5-yl)ethoxy)acetyl)-3,8-diazabicyclo[3.2.1]octan-8-yl)nicotinonitrile], with less than 10 nM; and `N#Cc1ccc(N2C3CCC2CN(C(=O)COC(c2ccc(F)cc2)C(F)F)C3)nc1` (racemic) [Example 200, 6-(3-(2-(2,2-difluoro-1-(4-fluorophenyl)ethoxy)acetyl)-3,8-diazabicyclo[3.2.1]octan-8-yl)nicotinonitrile], with 10 to 100 nM. Regarding `N#Cc1ccc(N2C3CCC2CN(C(=O)COC(c2ccc(F)c(F)c2)C(F)F)C3)nc1` (racemic) [Example 201, 6-(3-(2-(1-(3,4-difluorophenyl)-2,2-difluoroethoxy)acetyl)-3,8-diazabicyclo[3.2.1]octan-8-yl)nicotinonitrile], the IC50 is 10 to 100 nM.

These data come from patent US12565501B2, “Muscarinic acetylcholine M1 receptor antagonists” (Contineum Therapeutics, Inc., priority 2019, dated 2026).
